Measured values from publication PMC3458792 (Neuron, 2012).
Substitutions are numbered along the chain they refer to.

Assays:
Assay type in all cases: cell-based
[1] = molecular target: GLR-1, STG-2, SOL-1 and SOL-2 (Caenorhabditis elegans, UniProt P34299, Q552Y); experiment: two-electrode voltage clamp, Xenopus oocytes, agonist-gated current; settings: 1 mM glutamate
[2] = molecular target: GLR-1, STG-1, SOL-1 and SOL-2 (Caenorhabditis elegans, UniProt P34299); experiment: patch clamp of C. elegans muscle cells; settings: -60 mV
Sequence of GLR-1, STG-1, SOL-1 and SOL-2 (P34299 26-962, one chain of several): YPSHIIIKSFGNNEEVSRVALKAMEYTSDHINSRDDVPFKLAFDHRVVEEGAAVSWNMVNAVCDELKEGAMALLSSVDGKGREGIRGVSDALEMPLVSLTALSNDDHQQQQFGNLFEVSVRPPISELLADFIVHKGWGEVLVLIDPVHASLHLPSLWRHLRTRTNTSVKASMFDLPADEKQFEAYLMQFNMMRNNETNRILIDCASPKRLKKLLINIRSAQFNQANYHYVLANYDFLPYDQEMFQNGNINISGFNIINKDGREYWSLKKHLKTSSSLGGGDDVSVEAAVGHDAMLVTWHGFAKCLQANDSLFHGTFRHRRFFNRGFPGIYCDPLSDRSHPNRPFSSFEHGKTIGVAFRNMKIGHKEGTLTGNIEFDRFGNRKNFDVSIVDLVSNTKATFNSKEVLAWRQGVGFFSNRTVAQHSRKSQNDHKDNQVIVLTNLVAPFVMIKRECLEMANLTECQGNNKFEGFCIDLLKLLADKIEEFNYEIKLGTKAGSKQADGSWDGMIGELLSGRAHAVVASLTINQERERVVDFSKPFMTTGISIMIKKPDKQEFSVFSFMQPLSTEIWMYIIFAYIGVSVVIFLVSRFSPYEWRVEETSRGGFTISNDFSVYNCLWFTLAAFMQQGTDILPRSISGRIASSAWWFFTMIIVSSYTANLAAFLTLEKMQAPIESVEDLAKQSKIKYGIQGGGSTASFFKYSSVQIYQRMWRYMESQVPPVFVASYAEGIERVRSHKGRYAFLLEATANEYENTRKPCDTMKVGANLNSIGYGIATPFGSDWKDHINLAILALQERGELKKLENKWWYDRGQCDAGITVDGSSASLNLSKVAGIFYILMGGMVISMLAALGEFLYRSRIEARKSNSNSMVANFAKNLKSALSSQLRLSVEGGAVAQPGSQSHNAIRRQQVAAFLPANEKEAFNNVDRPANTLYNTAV
Sequence of GLR-1, STG-1, SOL-1 and SOL-2 (Q9XUU2 19-436 partner, one chain of several): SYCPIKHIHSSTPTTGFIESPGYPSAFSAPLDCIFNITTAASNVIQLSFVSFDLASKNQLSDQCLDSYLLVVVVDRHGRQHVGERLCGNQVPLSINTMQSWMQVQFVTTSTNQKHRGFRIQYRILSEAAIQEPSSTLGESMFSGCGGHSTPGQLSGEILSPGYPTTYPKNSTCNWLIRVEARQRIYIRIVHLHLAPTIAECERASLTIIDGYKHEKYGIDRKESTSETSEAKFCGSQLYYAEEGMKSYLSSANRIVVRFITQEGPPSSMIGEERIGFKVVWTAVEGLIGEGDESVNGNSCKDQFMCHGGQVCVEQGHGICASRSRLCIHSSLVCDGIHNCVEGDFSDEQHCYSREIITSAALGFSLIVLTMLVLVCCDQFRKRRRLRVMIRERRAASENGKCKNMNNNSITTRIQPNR

[3] = molecular target: GLR-1, STG-2, SOL-1 and SOL-2 (Caenorhabditis elegans, UniProt P34299); experiment: two-electrode voltage clamp, Xenopus oocytes, agonist-gated current
Sequence of GLR-1, STG-2, SOL-1 and SOL-2 (Caenorhabditis elegans, UniProt P34299) (P34299 26-962, one chain of several): as the sequence (P34299 26-962, one chain of several) above
Sequence of GLR-1, STG-2, SOL-1 and SOL-2 (Caenorhabditis elegans, UniProt P34299) (Q9XUU2 19-436 partner, one chain of several): as the sequence (Q9XUU2 19-436 partner, one chain of several) above

GLR-1, STG-2 and SOL-1 [4] = molecular target: T1, GLR-1, STG-2 and SOL-1 (Caenorhabditis elegans, UniProt P34299, Q552Y); experiment: as above; settings: 1 mM glutamate
T1 sequence (P34299 26-962 Q552Y): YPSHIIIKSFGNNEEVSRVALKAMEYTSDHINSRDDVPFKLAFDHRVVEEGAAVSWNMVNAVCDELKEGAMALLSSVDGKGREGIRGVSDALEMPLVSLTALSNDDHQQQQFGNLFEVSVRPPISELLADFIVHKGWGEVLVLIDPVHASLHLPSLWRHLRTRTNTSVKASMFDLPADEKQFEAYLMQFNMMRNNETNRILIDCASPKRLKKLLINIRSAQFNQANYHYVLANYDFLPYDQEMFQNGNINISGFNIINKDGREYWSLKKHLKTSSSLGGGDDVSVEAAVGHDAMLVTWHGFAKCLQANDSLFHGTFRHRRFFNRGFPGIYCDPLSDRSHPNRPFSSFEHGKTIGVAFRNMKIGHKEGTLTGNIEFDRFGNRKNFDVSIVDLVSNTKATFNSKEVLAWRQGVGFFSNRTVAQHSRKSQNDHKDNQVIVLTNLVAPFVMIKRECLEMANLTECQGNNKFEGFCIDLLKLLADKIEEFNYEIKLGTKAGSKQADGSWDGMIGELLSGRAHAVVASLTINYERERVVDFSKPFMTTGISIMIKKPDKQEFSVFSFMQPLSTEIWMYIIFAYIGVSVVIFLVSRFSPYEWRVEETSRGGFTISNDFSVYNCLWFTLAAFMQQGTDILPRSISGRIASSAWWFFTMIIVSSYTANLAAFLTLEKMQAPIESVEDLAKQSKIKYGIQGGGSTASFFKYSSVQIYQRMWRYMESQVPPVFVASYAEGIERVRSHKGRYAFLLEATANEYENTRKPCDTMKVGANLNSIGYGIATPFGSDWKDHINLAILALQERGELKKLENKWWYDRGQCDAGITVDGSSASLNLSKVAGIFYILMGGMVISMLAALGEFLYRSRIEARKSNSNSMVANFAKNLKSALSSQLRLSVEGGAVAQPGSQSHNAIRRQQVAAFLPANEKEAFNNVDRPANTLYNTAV
T1 sequence (G5EBI8 1-357 partner): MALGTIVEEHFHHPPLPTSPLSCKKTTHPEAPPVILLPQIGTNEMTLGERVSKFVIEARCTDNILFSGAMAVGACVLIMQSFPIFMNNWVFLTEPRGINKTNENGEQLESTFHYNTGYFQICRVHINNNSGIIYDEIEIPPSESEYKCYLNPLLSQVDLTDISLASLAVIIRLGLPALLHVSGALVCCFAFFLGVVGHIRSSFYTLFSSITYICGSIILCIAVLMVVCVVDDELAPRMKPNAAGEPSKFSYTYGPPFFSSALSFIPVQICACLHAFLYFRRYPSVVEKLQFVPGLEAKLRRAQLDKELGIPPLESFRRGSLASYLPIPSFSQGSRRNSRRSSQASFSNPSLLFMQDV
T1 sequence (Q93212 24-594 partner): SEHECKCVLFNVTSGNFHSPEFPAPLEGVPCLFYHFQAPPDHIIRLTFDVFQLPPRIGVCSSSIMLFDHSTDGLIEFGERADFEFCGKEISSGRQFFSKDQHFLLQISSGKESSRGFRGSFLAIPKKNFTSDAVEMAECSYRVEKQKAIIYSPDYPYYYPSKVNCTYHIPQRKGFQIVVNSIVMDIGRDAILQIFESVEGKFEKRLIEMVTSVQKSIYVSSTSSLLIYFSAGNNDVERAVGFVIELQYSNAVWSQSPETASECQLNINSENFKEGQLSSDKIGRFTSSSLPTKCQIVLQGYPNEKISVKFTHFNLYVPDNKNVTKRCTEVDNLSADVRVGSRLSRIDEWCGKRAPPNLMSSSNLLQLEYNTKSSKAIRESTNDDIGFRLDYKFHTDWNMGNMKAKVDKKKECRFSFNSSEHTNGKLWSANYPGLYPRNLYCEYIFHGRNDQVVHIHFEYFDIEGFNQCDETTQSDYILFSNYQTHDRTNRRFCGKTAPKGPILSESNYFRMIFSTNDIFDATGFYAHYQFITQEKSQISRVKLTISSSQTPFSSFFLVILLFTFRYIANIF

GLR-1, STG-2 and SOL-1 [5] = molecular target: T2, GLR-1, STG-2 and SOL-1 (Caenorhabditis elegans, UniProt P34299); experiment: as above
T2 sequence (P34299 26-962): T1 sequence (P34299 26-962 Q552Y) with Y527Q
T2 sequence (G5EBI8 1-357 partner): T1 sequence (G5EBI8 1-357 partner)
T2 sequence (Q93212 24-594 partner): T1 sequence (Q93212 24-594 partner)

GLR-1, STG-1 and SOL-1 = molecular target: T3, GLR-1, STG-1 and SOL-1 (Caenorhabditis elegans, UniProt P34299); experiment: patch clamp of C. elegans muscle cells; settings: 100 μM kainate; -60 mV; partial agonist
T3 sequence (P34299 26-962): T1 sequence (P34299 26-962 Q552Y) with Y527Q
T3 sequence (Q15KL0 1-366 partner): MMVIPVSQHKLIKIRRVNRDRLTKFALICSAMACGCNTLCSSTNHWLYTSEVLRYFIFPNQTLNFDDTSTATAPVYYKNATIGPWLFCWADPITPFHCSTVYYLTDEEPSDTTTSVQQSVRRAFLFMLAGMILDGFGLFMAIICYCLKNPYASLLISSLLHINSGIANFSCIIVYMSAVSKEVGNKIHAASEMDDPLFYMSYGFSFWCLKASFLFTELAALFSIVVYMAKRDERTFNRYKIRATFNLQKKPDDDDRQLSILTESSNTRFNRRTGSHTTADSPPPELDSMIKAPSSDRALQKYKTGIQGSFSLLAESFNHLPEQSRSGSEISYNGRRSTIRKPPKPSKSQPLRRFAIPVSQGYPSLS
T3 sequence (Q93212 24-594 partner): T1 sequence (Q93212 24-594 partner)

[6] = 100 μM kainate, partial agonist

Sequence of GLR-1, STG-2, SOL-1 and SOL-2 (Caenorhabditis elegans, UniProt P34299, Q552Y) (Q9XUU2 19-436 partner, one chain of several): as the sequence (Q9XUU2 19-436 partner, one chain of several) above

SMILES | two-electrode voltage clamp, Xenopus oocytes, agonist-gated current [1] | patch clamp of C. elegans muscle cells ([2]; 3 mM glutamate, agonist) | two-electrode voltage clamp, Xenopus oocytes, agonist-gated current ([3]; 1 mM glutamate, agonist) | two-electrode voltage clamp, Xenopus oocytes, agonist-gated current (GLR-1, STG-2 and SOL-1 [4]) | two-electrode voltage clamp, Xenopus oocytes, agonist-gated current (GLR-1, STG-2 and SOL-1 [5]; 1 mM glutamate, agonist) | patch clamp of C. elegans muscle cells [2, 6] | two-electrode voltage clamp, Xenopus oocytes, agonist-gated current [3, 6] | patch clamp of C. elegans muscle cells (GLR-1, STG-1 and SOL-1) | two-electrode voltage clamp, Xenopus oocytes, agonist-gated current (GLR-1, STG-2 and SOL-1 [5]; [6])
N[C@@H](CCC(=O)O)C(=O)O [Glu, glutamate] | there was considerable desensitization when SOL-2 was co-expressed | glutamate-gated currents of approximately the same magnitude and kinetics in transgenic muscles | We recorded both glutamate- and kainate-gated currents from oocytes | glutamate-gated current recorded from Xenopus oocytes that expressed GLR-1(Q552Y), STG-2, and SOL-1 did not desensitize | We recorded both glutamate- and kainate-gated currents from oocytes | – | – | – | –
C=C(C)[C@H]1CN[C@H](C(=O)O)[C@H]1CC(=O)O [KA, kainate] | – | – | – | – | – | the presence of SOL-2 markedly reduced the magnitude of the kainate-gated current | The kainate-gated current appeared faster and smaller with co-expression of SOL-2 | the presence of SOL-2 markedly reduced the magnitude of the kainate-gated current | We recorded both glutamate- and kainate-gated currents from oocytes
